The target of the assay is T1, Solute carrier family 15 member 1 (Homo sapiens) (UniProt P46059).
T1 sequence (whole entry): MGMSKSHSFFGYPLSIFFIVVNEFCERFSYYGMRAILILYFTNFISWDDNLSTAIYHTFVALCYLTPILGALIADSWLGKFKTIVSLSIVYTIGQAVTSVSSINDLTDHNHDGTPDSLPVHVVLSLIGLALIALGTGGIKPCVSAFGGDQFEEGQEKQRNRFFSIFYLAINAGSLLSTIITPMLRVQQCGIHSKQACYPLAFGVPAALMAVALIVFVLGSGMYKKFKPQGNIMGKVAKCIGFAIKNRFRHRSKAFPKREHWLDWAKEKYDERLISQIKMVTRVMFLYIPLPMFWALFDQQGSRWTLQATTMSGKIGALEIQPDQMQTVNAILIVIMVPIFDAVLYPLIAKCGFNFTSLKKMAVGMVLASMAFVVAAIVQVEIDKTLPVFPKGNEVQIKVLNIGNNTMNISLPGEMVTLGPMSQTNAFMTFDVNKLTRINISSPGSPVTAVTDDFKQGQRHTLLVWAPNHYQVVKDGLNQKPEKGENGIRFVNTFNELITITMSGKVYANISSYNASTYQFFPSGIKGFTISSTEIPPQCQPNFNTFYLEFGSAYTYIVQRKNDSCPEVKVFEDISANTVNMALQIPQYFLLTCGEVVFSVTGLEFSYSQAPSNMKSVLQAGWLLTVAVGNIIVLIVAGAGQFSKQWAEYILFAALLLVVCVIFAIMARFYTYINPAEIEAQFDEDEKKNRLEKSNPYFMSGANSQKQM
The experiment in a line: Inhibition of human PEPT1-mediated [3H]GlySar uptake in CHO cells at 1 mM. Format: cell-based.
Broadly, the inhibition is the share of the control response that was lost under treatment. In the case of `Cc1c(CC(=O)NCCCC[C@H](N)C(=O)N[C@@H](C)C(=O)O)c(=O)oc2cc(N)c(S(=O)(=O)O)cc12`, the inhibition is less than 22%. With `Cc1c(CC(=O)NCCCC[C@H](N)C(=O)N[C@H](C(=O)O)C(C)C)c(=O)oc2cc(N)c(S(=O)(=O)O)cc12`, the inhibition was 40%. The figure for `Cc1c(CC(=O)NCCCC[C@H](N)C(=O)N[C@@H](CO)C(=O)O)c(=O)oc2cc(N)c(S(=O)(=O)O)cc12` is less than 22%.

The values above are taken from ChEMBL document CHEMBL1144795, “Design of high-affinity peptide conjugates with optimized fluorescence quantum yield as markers for small peptide transporter PEPT1 (SLC15A1)” (Bioorg Med Chem Lett, 2008).
